In ChEMBL document CHEMBL3763148, “Synthesis, structure elucidation, DNA-PK and PI3K and anti-cancer activity of 8- and 6-aryl-substituted-1-3-benzoxazines” (Eur J Med Chem, 2016) one finds inhibition and IC50 data, which are given here for 24 compounds.

Assay [1] deals with T1, DNA-dependent protein kinase catalytic subunit (Homo sapiens, UniProt P78527). The assay is described as follows: Inhibition of human DNA-PK using EPPLSQEAFADLWKK as substrate at 10 uM by HTRF assay.
Assay [2] concerns the target Phosphatidylinositol 4,5-bisphosphate 3-kinase catalytic subunit gamma isoform (Homo sapiens) (UniProt P48736). The assay is described as follows: Inhibition of PI3Kgamma (unknown origin) at 10 uM incubated for 60 mins by kinase-glo luminescence assay.
Assay [3] deals with T2, Phosphatidylinositol 4,5-bisphosphate 3-kinase catalytic subunit beta isoform (Homo sapiens, UniProt P42338). The assay is described as follows: Inhibition of PI3Kbeta (unknown origin) incubated for 60 mins by kinase-glo luminescence assay.
Target sequence in this assay (P42338 whole entry, canonical isoform): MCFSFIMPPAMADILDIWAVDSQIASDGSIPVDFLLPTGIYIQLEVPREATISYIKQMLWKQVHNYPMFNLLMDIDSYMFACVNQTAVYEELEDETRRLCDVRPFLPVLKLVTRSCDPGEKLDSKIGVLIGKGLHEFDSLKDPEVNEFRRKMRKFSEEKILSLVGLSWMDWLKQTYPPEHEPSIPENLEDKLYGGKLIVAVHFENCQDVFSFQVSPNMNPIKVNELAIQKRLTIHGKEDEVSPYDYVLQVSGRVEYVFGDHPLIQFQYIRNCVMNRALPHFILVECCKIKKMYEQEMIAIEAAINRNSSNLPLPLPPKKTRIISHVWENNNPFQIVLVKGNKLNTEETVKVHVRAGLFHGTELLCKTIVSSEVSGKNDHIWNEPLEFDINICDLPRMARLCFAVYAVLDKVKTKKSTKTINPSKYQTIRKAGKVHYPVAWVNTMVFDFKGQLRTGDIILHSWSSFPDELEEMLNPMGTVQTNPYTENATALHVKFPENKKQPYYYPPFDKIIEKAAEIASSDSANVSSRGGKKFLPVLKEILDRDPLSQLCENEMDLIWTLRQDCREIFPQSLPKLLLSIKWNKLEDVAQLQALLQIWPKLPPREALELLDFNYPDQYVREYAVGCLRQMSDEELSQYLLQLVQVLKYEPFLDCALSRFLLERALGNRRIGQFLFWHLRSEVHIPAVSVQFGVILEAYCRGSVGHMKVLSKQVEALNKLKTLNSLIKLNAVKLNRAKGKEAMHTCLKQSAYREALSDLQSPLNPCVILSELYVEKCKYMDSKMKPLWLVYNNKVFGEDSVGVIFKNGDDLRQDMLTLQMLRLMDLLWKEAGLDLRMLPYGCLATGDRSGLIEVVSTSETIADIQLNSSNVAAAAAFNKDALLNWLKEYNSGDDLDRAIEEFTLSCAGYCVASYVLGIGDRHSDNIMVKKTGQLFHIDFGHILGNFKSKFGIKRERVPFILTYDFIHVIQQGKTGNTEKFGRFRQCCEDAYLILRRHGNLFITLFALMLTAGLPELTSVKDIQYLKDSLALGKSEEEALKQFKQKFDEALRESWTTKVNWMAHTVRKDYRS
Assay [4] concerns the target T3, Phosphatidylinositol 4,5-bisphosphate 3-kinase catalytic subunit delta isoform (Homo sapiens, UniProt O00329).
T3 sequence (O00329 whole entry): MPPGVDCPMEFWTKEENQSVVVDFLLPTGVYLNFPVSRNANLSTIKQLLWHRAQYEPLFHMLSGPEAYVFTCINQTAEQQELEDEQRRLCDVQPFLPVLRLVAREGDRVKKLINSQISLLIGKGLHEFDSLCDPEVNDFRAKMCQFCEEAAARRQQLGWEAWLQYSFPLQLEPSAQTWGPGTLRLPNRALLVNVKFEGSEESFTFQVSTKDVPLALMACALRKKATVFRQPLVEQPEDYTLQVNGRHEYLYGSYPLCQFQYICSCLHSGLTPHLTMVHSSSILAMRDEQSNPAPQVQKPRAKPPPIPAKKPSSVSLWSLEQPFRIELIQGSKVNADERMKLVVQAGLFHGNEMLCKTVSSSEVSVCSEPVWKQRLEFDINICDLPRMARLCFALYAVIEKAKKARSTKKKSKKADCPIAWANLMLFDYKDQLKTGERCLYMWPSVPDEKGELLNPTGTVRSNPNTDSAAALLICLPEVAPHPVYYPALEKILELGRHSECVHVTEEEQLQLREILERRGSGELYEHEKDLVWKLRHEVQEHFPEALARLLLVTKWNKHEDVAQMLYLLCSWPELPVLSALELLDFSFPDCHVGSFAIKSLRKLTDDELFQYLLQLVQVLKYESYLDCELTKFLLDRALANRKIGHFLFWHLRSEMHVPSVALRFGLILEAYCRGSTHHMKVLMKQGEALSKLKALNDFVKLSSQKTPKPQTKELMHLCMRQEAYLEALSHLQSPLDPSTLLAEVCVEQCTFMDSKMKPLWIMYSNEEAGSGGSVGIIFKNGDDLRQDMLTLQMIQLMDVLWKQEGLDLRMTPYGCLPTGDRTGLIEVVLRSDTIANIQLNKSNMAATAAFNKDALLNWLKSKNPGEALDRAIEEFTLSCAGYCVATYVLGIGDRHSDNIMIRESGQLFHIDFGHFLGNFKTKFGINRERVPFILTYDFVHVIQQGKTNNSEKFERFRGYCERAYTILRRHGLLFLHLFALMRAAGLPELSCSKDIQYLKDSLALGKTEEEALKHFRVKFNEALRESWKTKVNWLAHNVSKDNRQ
The assay is described as follows: Inhibition of PI3Kdelta (unknown origin) incubated for 60 mins by kinase-glo luminescence assay.

The target in assay [5] is T4, Phosphatidylinositol 4,5-bisphosphate 3-kinase catalytic subunit alpha isoform (Homo sapiens, UniProt P42336). The assay is described as follows: Inhibition of PI3Kalpha (unknown origin) incubated for 60 mins by kinase-glo luminescence assay.
T4 sequence (P42336 whole entry, canonical isoform): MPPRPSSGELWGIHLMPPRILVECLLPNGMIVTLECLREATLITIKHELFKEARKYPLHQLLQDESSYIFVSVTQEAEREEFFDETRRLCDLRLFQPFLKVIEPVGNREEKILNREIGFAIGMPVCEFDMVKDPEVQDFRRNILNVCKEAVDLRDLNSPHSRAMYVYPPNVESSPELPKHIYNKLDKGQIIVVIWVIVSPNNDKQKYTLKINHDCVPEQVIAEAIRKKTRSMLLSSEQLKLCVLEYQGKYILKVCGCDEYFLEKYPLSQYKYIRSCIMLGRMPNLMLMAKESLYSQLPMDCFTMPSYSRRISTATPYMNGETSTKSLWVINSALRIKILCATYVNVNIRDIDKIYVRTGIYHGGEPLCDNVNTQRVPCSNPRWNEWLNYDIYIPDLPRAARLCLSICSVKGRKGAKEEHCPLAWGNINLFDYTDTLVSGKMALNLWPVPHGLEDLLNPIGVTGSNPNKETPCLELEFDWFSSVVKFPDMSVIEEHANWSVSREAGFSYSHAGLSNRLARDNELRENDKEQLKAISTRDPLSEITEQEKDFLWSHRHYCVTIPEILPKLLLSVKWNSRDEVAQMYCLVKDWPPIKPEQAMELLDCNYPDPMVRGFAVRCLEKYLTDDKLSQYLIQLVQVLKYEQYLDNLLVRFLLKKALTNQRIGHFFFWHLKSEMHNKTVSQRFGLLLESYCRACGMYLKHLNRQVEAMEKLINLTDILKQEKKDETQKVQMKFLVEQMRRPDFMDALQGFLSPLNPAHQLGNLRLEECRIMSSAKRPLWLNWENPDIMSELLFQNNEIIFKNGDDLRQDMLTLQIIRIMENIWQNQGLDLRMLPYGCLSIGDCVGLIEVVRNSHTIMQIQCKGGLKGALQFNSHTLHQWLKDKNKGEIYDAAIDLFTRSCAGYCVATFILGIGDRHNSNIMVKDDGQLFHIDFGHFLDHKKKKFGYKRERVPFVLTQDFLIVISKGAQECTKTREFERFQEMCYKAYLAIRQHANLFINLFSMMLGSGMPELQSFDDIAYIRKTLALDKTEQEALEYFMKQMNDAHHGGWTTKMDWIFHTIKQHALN
Assay [6] has as its target T1, DNA-dependent protein kinase catalytic subunit. The assay is described as follows: Inhibition of human DNA-PK using EPPLSQEAFADLWKK as substrate by HTRF assay.
Assay [7] concerns the target T4, Phosphatidylinositol 4,5-bisphosphate 3-kinase catalytic subunit alpha isoform. The assay is described as follows: Inhibition of PI3Kalpha (unknown origin) at 10 uM incubated for 60 mins by kinase-glo luminescence assay.
The target of assay [8] is T5, Phosphatidylinositol 4,5-bisphosphate 3-kinase catalytic subunit delta isoform (Homo sapiens) (UniProt O00329).
T5 sequence (whole entry): T3 sequence (O00329 whole entry)
Nature of the assay: Inhibition of PI3Kdelta (unknown origin) at 10 uM incubated for 60 mins by kinase-glo luminescence assay.

Assay [9] deals with T2, Phosphatidylinositol 4,5-bisphosphate 3-kinase catalytic subunit beta isoform. The assay is described as follows: Inhibition of PI3Kbeta (unknown origin) at 10 uM incubated for 60 mins by kinase-glo luminescence assay.
Target sequence in this assay (P42338 whole entry, looked up, canonical isoform): as the sequence (P42338 whole entry, canonical isoform) above

Phosphatidylinositol 4,5-bisphosphate 3-kinase catalytic subunit gamma isoform (Homo sapiens), sequence (P48736 whole entry, looked up, canonical isoform): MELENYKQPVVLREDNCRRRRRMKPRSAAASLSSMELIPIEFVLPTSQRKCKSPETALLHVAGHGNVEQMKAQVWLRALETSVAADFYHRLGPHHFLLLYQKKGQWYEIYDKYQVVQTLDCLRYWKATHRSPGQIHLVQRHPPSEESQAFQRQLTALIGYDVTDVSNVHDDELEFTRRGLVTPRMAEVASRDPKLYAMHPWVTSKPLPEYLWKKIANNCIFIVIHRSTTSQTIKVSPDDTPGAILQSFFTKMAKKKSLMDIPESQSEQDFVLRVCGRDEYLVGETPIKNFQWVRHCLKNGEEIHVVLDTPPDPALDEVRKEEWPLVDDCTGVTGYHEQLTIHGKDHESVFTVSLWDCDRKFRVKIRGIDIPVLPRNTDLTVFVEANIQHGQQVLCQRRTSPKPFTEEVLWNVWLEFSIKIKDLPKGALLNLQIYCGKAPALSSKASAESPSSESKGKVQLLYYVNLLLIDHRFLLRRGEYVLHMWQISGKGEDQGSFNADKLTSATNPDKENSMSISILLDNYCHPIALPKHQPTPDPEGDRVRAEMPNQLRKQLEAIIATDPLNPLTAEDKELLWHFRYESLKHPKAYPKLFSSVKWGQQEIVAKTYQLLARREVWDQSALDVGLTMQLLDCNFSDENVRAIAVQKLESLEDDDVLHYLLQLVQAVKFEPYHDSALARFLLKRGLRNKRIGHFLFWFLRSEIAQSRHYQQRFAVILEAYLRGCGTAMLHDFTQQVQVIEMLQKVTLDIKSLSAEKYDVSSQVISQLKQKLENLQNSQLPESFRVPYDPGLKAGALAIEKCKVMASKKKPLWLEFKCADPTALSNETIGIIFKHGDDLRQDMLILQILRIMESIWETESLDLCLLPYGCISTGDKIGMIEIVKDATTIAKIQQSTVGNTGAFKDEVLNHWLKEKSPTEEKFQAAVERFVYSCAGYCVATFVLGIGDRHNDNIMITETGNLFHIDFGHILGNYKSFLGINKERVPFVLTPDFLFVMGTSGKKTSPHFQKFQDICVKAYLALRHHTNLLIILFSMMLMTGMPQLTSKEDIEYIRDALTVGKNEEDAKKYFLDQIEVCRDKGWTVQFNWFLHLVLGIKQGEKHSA

As to `Nc1cccc(-c2ccc3oc(N4CCOCC4)nc(=O)c3c2)c1`, the inhibition in assay [1] turned out to be 7%.

The compound `O=c1nc(N2CCOCC2)oc2c(-c3ccc(CO)cc3)cccc12` showed an inhibition in assay [2] of 31%. The IC50 in [3] is 3.2 µM; in [4], 9 µM; in assay [5], 10 µM; in assay [6], 15.7 µM.

For `O=c1cc(N2CCOCC2)oc2c(-c3ccccc3)cccc12` [LY-294002], the IC50 in [4] stood at 0.95 µM; in [6], 0.3 µM.

With `Nc1cccc(-c2cccc3c(=O)nc(N4CCOCC4)oc23)c1`, the inhibition was 13% in [7], 0% in assay [2] and 4% in assay [8]. In addition, the IC50 in [3] turned out to be 10 µM; in [6] it was 63.5 µM.

As for `O=c1nc(N2CCOCC2)oc2ccc(-c3cccc4ccccc34)cc12`, the inhibition in assay [7] is 10%; in assay [2], 4%; in [8], 0%; in assay [1], 4%; in assay [9], 0%.

On to `O=c1nc(N2CCOCC2)oc2c(-c3cccc4c3sc3ccccc34)cc(Cl)cc12`, for which the inhibition came to 0% in assay [7], 1% in assay [2], 36% in [8] and 59% in assay [9]. Besides, inhibition in assay [6] was half-maximal at 0.564 µM (IC50).

As for `O=c1nc(N2CCOCC2)oc2ccc(-c3ccccc3)cc12`, the inhibition in assay [7] was 2%; in assay [2], 9%; in assay [8], 0%; in [1], 1%; in assay [9], 0%.

Turning to `O=c1nc(N2CCOCC2)oc2c(-c3cc4ccccc4s3)cccc12`, the inhibition turned out to be 17% in assay [2] and 15% in assay [9]. Moreover, the results for the IC50 in [4], in assay [5] and in assay [6] were 3.7 µM, 10 µM and 2.12 µM, respectively.

Take `O=c1nc(N2CCOCC2)oc2c(-c3cccnc3)cccc12`: the inhibition in assay [7] worked out at 26%; in assay [2], 24%; in [8] it was 37%. In addition, the IC50 in [3] was above 10 µM; in assay [6] it was 78.4 µM.

In turn, `NC(=O)c1ccc(-c2ccc3oc(N4CCOCC4)nc(=O)c3c2)cc1` registered an inhibition in assay [1] of 8%.

For `O=c1nc(N2CCOCC2)oc2ccc(-c3ccc(CO)cc3)cc12`, the inhibition in assay [7] worked out at 7%; in assay [2], 0%; in assay [8], 0%; in [1] it was 11%; in assay [9] it was 0%.

Turning to `O=c1nc(N2CCOCC2)oc2ccc(-c3cccnc3)cc12`, the inhibition in assay [7] worked out at 11%; in assay [2] it was 0%; in assay [8], 3%; in [1] it was 6%; in assay [9], 36%.

Take `O=c1nc(N2CCOCC2)oc2c(-c3cc4ccccc4s3)cc(Cl)cc12`: the inhibition amounted to 35% in assay [7], 14% in assay [2], 16% in [8] and 15% in [9]. In assay [6], this compound yielded an IC50 of 5.77 µM.

Take `O=c1nc(N2CCOCC2)oc2ccc(-c3cc4ccccc4s3)cc12`: the inhibition in assay [7] was 3%; in [2], 3%; in assay [8], 0%; in assay [1], 0%; in [9] it was 20%.

For `O=c1nc(N2CCOCC2)oc2ccc(-c3cccs3)cc12`, the inhibition in assay [1] was determined as 24%.

Take `COc1ccc(-c2cc(Cl)cc3c(=O)nc(N4CCOCC4)oc23)cc1`: the values for the inhibition in [7], in assay [2] and in assay [9] were 16%, 0% and 0%, respectively. The IC50 in assay [4] was 2.6 µM; in assay [6] it was 12.3 µM.

As to `O=c1nc(N2CCOCC2)oc2ccc(-c3cccc4c3oc3ccccc34)cc12`, the inhibition in assay [7] came to 5%; in assay [2], 0%; in assay [8], 0%; in [1], 12%; in assay [9], 6%.

For `COc1ccc(-c2ccc3oc(N4CCOCC4)nc(=O)c3c2)cc1`, the inhibition in assay [7] came out at 7%; in assay [2] it was 0%; in assay [8], 0%; in assay [1] it was 8%; in assay [9], 17%.

Turning to `O=c1nc(N2CCOCC2)oc2c(-c3ccc(Cl)cc3)cccc12`, the inhibition was determined as 16% in assay [2] and 34% in [9]. Besides, the IC50 in assay [4] was 10 µM; in [5] it was above 10 µM; in assay [6], 10.9 µM.

Consider `O=c1nc(N2CCOCC2)oc2ccc(-c3ccc(Cl)cc3)cc12`, for which the inhibition in assay [7] was 10%; in assay [2], 10%; in assay [8] it was 0%; in assay [1], 7%; in assay [9], 0%.

With `O=c1nc(N2CCOCC2)oc2ccc(-c3ccsc3)cc12`, the inhibition in assay [1] stood at 21%.

As to `O=c1nc(N2CCOCC2)oc2c(-c3cccs3)cc(Cl)cc12`, the inhibition was found to be 42% in assay [7], 0% in assay [2] and 0% in [9]. Further, the IC50 in [4] stood at 10 µM; in [6] it was 6.05 µM.

Take `O=c1nc(N2CCOCC2)oc2ccc(-c3cccc(-c4ccccc4)c3)cc12`: the inhibition in assay [7] stood at 11%; in [2], 0%; in assay [8], 0%; in assay [1], 7%; in [9], 13%.

For the compound `O=c1nc(N2CCOCC2)oc2ccc(/C=C/c3ccccc3)cc12`, the inhibition in assay [7] is 3%; in [2] it was 4%; in assay [8], 0%; in [1], 23%; in [9], 29%.
